Test results as given in patent US4345938A, “Herbicidal 2-haloacetanilides” (Monsanto Company, priority 1980, dated 1982).
Where two headings read alike, the source gives them in different places.

How the values were obtained:
Format in all cases: in vivo
Cyperus serotinus [1] = assay: Field transplant rice test, applied 0 DAT, CS; settings: 0 h, read-out: Percent Inhibition, CS; for inhibition at 375 g/ha: 0.375 Kg/Ha; for inhibition at 750 g/ha: 0.75 Kg/Ha; for inhibition at 1500 g/ha: 1.5 Kg/Ha; for inhibition at 3000 g/ha: 3.0 Kg/Ha
Protocol: (§1) The test data in Table III for all compounds was obtained under identical test conditions. The weeds used in the tests herein have the following abbreviations in the tables: Echinochloa crus-galli (EC), Monochloria vaginalis (MV), Cyperus Serotinus (CS), Eleocharis Kuroguwai (EK) and Sagittaria trifolia (ST).
(§2) In further comparative tests, a preferred compound of this invention (Example 1) was tested in the field with prior art Compounds A-D. These tests were conducted under conditions reflecting herbicide application times generally favorable to all herbicides in the test. The timing of application of herbicides to transplant rice is very important, whether, as in some instances, prior to transplanting the rice; in other instances, at the time of transplanting or else after transplanting. Application times are conventionally referred to as "days before transplant" (DBT) or "days after transplant" ("DAT"). The field test data in Table IV was obtained from a test in which the herbicides were applied at the time of transplant, i.e., "0 DAT", with observations being made weekly up to six weeks after transplant ("WAT") beginning at two weeks after transplant; for illustrative and representative purposes, only the early, middle and late period observations, i.e., 2 WAT, 4 WAT and 6 WAT, are shown in Table IV. The data in Table IV is for rates of application common to all herbicides in the test, i.e., from 3.0 kg/ha (2.67 lb/A) down to 0.375 kg/ha (0.34 lb/A). All herbicides were applied at their actual or expected use rates, i.e., as granules containing 2.5% by weight herbicide for the compound of Example 1, Compounds B, C and D and 5.0% by weight for Compound A.

Echinochloa crus-galli = assay: Field transplant rice test, applied 9 DAT, EC; settings: for inhibition at 375 g/ha / inhibition at 750 g/ha / inhibition at 1500 g/ha / inhibition at 3000 g/ha: Echinochloa crus-galli, 216 h, read-out: Percent Inhibition, EC; for inhibition at 375 g/ha: 0.375 Kg/Ha; for inhibition at 750 g/ha: 0.75 Kg/Ha; for inhibition at 1500 g/ha: 1.5 Kg/Ha; for inhibition at 3000 g/ha: 3.0 Kg/Ha
Text: (§3) In the discussion of data below, occasional reference is made to herbicide application rates symbolized as "GR15 " and "GR85 "; these rates are given in kilograms per hectare (kg/ha) which are convertible into pounds per acre (lbs/A) by dividing the kg/ha rate by 1.12.
(§4) A further guide to the effectiveness of a chemical as a selective herbicide is the "selectivity factor" ("SF") for a herbicide in given crops and weeds. The selectivity factor is a measure of the relative degree of crop safety and weed injury and is expressed in terms of the GR15 /GR85 ratio, i.e., the GR15 rate for the crop divided by the GR85 rate for the weed, both rates in kg/ha (lb/A.)
as §1, §2
(§5) In Table V are presented field data showing the relative performance of the compound of Example 1 and Compounds A-D applied 9 DAT, with observations being made weekly from 3 WAT to 7 WAT; again, for illustrative and representative purposes, only the early, middle and late period observations are reported in Table V, the herbicide rates and concentrations of active ingredients the same as is shown in Table IV.

Rice = assay: Field transplant rice test, applied 0 DAT, rice injury; settings: Oryza sativa, 0 h, read-out: Percent Inhibition, Rice; for inhibition at 375 g/ha: 0.375 Kg/Ha; for inhibition at 750 g/ha: 0.75 Kg/Ha; for inhibition at 1500 g/ha: 1.5 Kg/Ha; for inhibition at 3000 g/ha: 3.0 Kg/Ha
Protocol: as §2

Monochoria vaginalis = assay: Field transplant rice test, applied 9 DAT, MV; settings: for inhibition at 375 g/ha / inhibition at 750 g/ha / inhibition at 1500 g/ha / inhibition at 3000 g/ha: Pontederia vaginalis, 216 h, read-out: Percent Inhibition, MV; for inhibition at 375 g/ha: 0.375 Kg/Ha; for inhibition at 750 g/ha: 0.75 Kg/Ha; for inhibition at 1500 g/ha: 1.5 Kg/Ha; for inhibition at 3000 g/ha: 3.0 Kg/Ha
Text: as §3, §4, §1, §2, §5

Cyperus serotinus [2] = assay: Field transplant rice test, applied 9 DAT, CS; settings: for inhibition at 375 g/ha / inhibition at 750 g/ha / inhibition at 1500 g/ha / inhibition at 3000 g/ha: Cyperus serotinus, 216 h, read-out: Percent Inhibition, CS; for inhibition at 375 g/ha: 0.375 Kg/Ha; for inhibition at 750 g/ha: 0.75 Kg/Ha; for inhibition at 1500 g/ha: 1.5 Kg/Ha; for inhibition at 3000 g/ha: 3.0 Kg/Ha
Text: as §3, §4, §1, §2, §5

What does the source list for `CCCCOCCN(C(=O)CCl)c1c(CC)cccc1CC` [Compound B, 2',6'-diethyl-N-(n-butoxyethyl)-2-chloroacetanilide]?
inhibition at 375 g/ha (Cyperus serotinus [1]; 2 WAT): 62%; inhibition at 375 g/ha (Cyperus serotinus [1]; 4 WAT): 55%; inhibition at 375 g/ha (Cyperus serotinus [1]; 6 WAT): 3%; inhibition at 750 g/ha (Cyperus serotinus [1]; 2 WAT): 70%; inhibition at 750 g/ha (Cyperus serotinus [1]; 4 WAT): 53%; inhibition at 750 g/ha (Cyperus serotinus [1]; 6 WAT): 12%; inhibition at 1500 g/ha (Cyperus serotinus [1]; 2 WAT): 82%; inhibition at 1500 g/ha (Cyperus serotinus [1]; 4 WAT): 83%; inhibition at 1500 g/ha (Cyperus serotinus [1]; 6 WAT): 45%; inhibition at 3000 g/ha (Cyperus serotinus [1]; 2 WAT): 72%; inhibition at 3000 g/ha (Cyperus serotinus [1]; 4 WAT): 62%; inhibition at 3000 g/ha (Cyperus serotinus [1]; 6 WAT): 37%; inhibition at 375 g/ha (Echinochloa crus-galli; 3 WAT): 57%; inhibition at 375 g/ha (Echinochloa crus-galli; 5 WAT): 55%; inhibition at 375 g/ha (Echinochloa crus-galli; 7 WAT): 47%; inhibition at 750 g/ha (Echinochloa crus-galli; 3 WAT): 68%; inhibition at 750 g/ha (Echinochloa crus-galli; 5 WAT): 53%; inhibition at 750 g/ha (Echinochloa crus-galli; 7 WAT): 50%; inhibition at 1500 g/ha (Echinochloa crus-galli; 3 WAT): 90%; inhibition at 1500 g/ha (Echinochloa crus-galli; 5 WAT): 80%; inhibition at 1500 g/ha (Echinochloa crus-galli; 7 WAT): 85%; inhibition at 3000 g/ha (Echinochloa crus-galli; 3 WAT): 95%; inhibition at 3000 g/ha (Echinochloa crus-galli; 5 WAT): 95%; inhibition at 3000 g/ha (Echinochloa crus-galli; 7 WAT): 92%; selectivity factor (GR15/GR85), EC in transplant rice (Echinochloa crus-galli; between 3 WAT and 7 WAT): 2; inhibition at 375 g/ha (Rice; 2 WAT): 7%; inhibition at 375 g/ha (Rice; 4 WAT): 3%; inhibition at 375 g/ha (Rice; 6 WAT): 7%; inhibition at 750 g/ha (Rice; 2 WAT): 3%; inhibition at 750 g/ha (Rice; 4 WAT): 2%; inhibition at 750 g/ha (Rice; 6 WAT): 3%; inhibition at 1500 g/ha (Rice; 2 WAT): 10%; inhibition at 1500 g/ha (Rice; 4 WAT): 3%; inhibition at 1500 g/ha (Rice; 6 WAT): 0%; inhibition at 3000 g/ha (Rice; 2 WAT): 7%; inhibition at 3000 g/ha (Rice; 4 WAT): 2%; inhibition at 3000 g/ha (Rice; 6 WAT): 3%; inhibition at 375 g/ha (Monochoria vaginalis; 3 WAT): 100%; inhibition at 375 g/ha (Monochoria vaginalis; 5 WAT): 95%; inhibition at 375 g/ha (Monochoria vaginalis; 7 WAT): 77%; inhibition at 750 g/ha (Monochoria vaginalis; 3 WAT): 97%; inhibition at 750 g/ha (Monochoria vaginalis; 5 WAT): 98%; inhibition at 750 g/ha (Monochoria vaginalis; 7 WAT): 88%; inhibition at 1500 g/ha (Monochoria vaginalis; 3 WAT): 98%; inhibition at 1500 g/ha (Monochoria vaginalis; 5 WAT): 100%; inhibition at 1500 g/ha (Monochoria vaginalis; 7 WAT): 100%; inhibition at 3000 g/ha (Monochoria vaginalis; 3 WAT): 100%; inhibition at 3000 g/ha (Monochoria vaginalis; 5 WAT): 100%; inhibition at 3000 g/ha (Monochoria vaginalis; 7 WAT): 97%; selectivity factor (GR15/GR85), MV in transplant rice (Monochoria vaginalis; between 3 WAT and 7 WAT): 8; inhibition at 375 g/ha (Cyperus serotinus [2]; 3 WAT): 93%; inhibition at 375 g/ha (Cyperus serotinus [2]; 5 WAT): 100%; inhibition at 375 g/ha (Cyperus serotinus [2]; 7 WAT): 77%; inhibition at 750 g/ha (Cyperus serotinus [2]; 3 WAT): 78%; inhibition at 750 g/ha (Cyperus serotinus [2]; 5 WAT): 67%; inhibition at 750 g/ha (Cyperus serotinus [2]; 7 WAT): 67%; inhibition at 1500 g/ha (Cyperus serotinus [2]; 3 WAT): 87%; inhibition at 1500 g/ha (Cyperus serotinus [2]; 5 WAT): 85%; inhibition at 1500 g/ha (Cyperus serotinus [2]; 7 WAT): 67%; inhibition at 3000 g/ha (Cyperus serotinus [2]; 3 WAT): 75%; inhibition at 3000 g/ha (Cyperus serotinus [2]; 5 WAT): 72%; inhibition at 3000 g/ha (Cyperus serotinus [2]; 7 WAT): 65%; selectivity factor (GR15/GR85), CS in transplant rice (Cyperus serotinus [2]; between 3 WAT and 7 WAT): 1
